Measured values: PubChem BioAssay AID248 (DTP/NCI, 2004)
“And” between values parts separate entries of the source, which are not always exact repeats. Identical values can stand only once. Inconclusive results and toxic doses are left out.

Test system: L1210 leukemia ip in BDF1 mice, survival T/C
Assay: NCI In Vivo Anticancer Drug Screen. Data for tumor model L1210 Leukemia (intraperitoneal) in B6D2F1 (BDF1) mice
Conditions: endpoint: mean survival time, higher = longer survival
Procedure, shortened: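 In this screen, tumor-bearing mice given compound are compared to those given vehicle, and their survival values are reported as a treated-to-control quotient.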

[1] = dose: 75.0 mg/kg/injection, schedule: Q01DX001 (ip), vehicle: saline
[2] = dose: 150.0 mg/kg/injection, schedule: Q01DX001 (ip), vehicle: saline
[3] = dose: 50.0 mg/kg/injection, schedule: Q04DX003 (ip), vehicle: Klucel (hydroxypropylcellulose) (HPC)
[4] = dose: 100.0 mg/kg/injection, schedule: Q04DX003 (ip), vehicle: Klucel (hydroxypropylcellulose) (HPC)
[5] = dose: 200.0 mg/kg/injection, schedule: Q04DX003 (ip), vehicle: Klucel (hydroxypropylcellulose) (HPC)
[6] = dose: 100.0 mg/kg/injection, schedule: Q01DX001 (ip), vehicle: saline
[7] = dose: 400.0 mg/kg/injection, schedule: Q04DX003 (ip), vehicle: Klucel (hydroxypropylcellulose) (HPC)
[8] = dose: 25.0 mg/kg/injection, schedule: Q01DX009 (ip), vehicle: saline
[9] = dose: 50.0 mg/kg/injection, schedule: Q01DX009 (ip), vehicle: saline
[10] = dose: 100.0 mg/kg/injection, schedule: Q01DX009 (ip), vehicle: saline
[11] = dose: 100.0 mg/kg/injection, schedule: Q04DX003 (ip), vehicle: saline with Tween-80
[12] = dose: 200.0 mg/kg/injection, schedule: Q04DX003 (ip), vehicle: saline with Tween-80
[13] = dose: 400.0 mg/kg/injection, schedule: Q04DX003 (ip), vehicle: saline with Tween-80
[14] = dose: 100.0 mg/kg/injection, schedule: Q01DX001 (ip), vehicle: carboxymethylcellulose (CMC)
[15] = dose: 200.0 mg/kg/injection, schedule: Q01DX001 (ip), vehicle: carboxymethylcellulose (CMC)
[16] = dose: 400.0 mg/kg/injection, schedule: Q01DX001 (ip), vehicle: carboxymethylcellulose (CMC)
[17] = dose: 100.0 mg/kg/injection, schedule: Q04DX003 (ip), vehicle: saline
[18] = dose: 200.0 mg/kg/injection, schedule: Q01DX009 (ip), vehicle: saline
[19] = dose: 100.0 mg/kg/injection, schedule: Q01DX001 (ip), vehicle: acetone
[20] = dose: 200.0 mg/kg/injection, schedule: Q01DX001 (ip), vehicle: acetone
[21] = dose: 100.0 mg/kg/injection, schedule: Q01DX009 (ip), vehicle: saline with Tween-80
[22] = dose: 200.0 mg/kg/injection, schedule: Q01DX009 (ip), vehicle: saline with Tween-80
[23] = dose: 50.0 mg/kg/injection, schedule: Q01DX009 (ip), vehicle: Klucel (hydroxypropylcellulose) (HPC)
[24] = dose: 100.0 mg/kg/injection, schedule: Q01DX009 (ip), vehicle: Klucel (hydroxypropylcellulose) (HPC)
[25] = dose: 200.0 mg/kg/injection, schedule: Q01DX009 (ip), vehicle: Klucel (hydroxypropylcellulose) (HPC)

SMILES: CC(=O)CC(=O)Nc1ccc(C(=O)c2ccccc2)cc1
- T/C (dose: 37.5 mg/kg/injection, schedule: Q01DX009 (ip), vehicle: saline): 98 % of control
- T/C (dose: 75.0 mg/kg/injection, schedule: Q01DX001 (ip), vehicle: acetone): 87 % of control
- T/C [1]: 95 % of control
- T/C (dose: 75.0 mg/kg/injection, schedule: Q01DX009 (ip), vehicle: saline): 93 % of control
- T/C [2]: 98 % of control
- T/C (dose: 150.0 mg/kg/injection, schedule: Q01DX009 (ip), vehicle: saline): 107 % of control
- T/C (dose: 300.0 mg/kg/injection, schedule: Q01DX001 (ip), vehicle: acetone): 98 % of control
- T/C (dose: 300.0 mg/kg/injection, schedule: Q01DX001 (ip), vehicle: saline): 90 % of control

SMILES: CCn1c(Cl)c(C(=O)O)c2ccccc21
- T/C [3]: 97 % of control
- T/C [4]: 97 % of control
- T/C [5]: 97 % of control

SMILES: COc1ccc(/C=C(\CCCOC(C)=O)[N+](=O)[O-])cc1
- T/C [6]: 100 % of control
- T/C (dose: 200.0 mg/kg/injection, schedule: Q01DX001 (ip), vehicle: saline): 111 % of control
- T/C (dose: 400.0 mg/kg/injection, schedule: Q01DX001 (ip), vehicle: saline): 113 % of control

SMILES: COc1ccc(CNc2ncccn2)cc1
- T/C [4]: 102 % of control
- T/C [5]: 102 % of control
- T/C [7]: 107 % of control

SMILES: O=C(NC(CSCc1ccccc1)C(=O)Oc1ccc([N+](=O)[O-])cc1)OCc1ccccc1 (centres undefined)
- T/C (dose: 12.0 mg/kg/injection, schedule: Q01DX009 (ip), vehicle: gum acacia): 91 % of control
- T/C (dose: 25.0 mg/kg/injection, schedule: Q01DX009 (ip), vehicle: gum acacia): 111 % of control
- T/C (dose: 25.0 mg/kg/injection, schedule: Q04DX003 (ip), vehicle: gum acacia): 91 % of control
- T/C (dose: 50.0 mg/kg/injection, schedule: Q01DX009 (ip), vehicle: gum acacia): 87 % of control
- T/C (dose: 50.0 mg/kg/injection, schedule: Q04DX003 (ip), vehicle: gum acacia): 88 % of control
- T/C (dose: 100.0 mg/kg/injection, schedule: Q04DX003 (ip), vehicle: gum acacia): 92 % of control

SMILES: NCC1CCCO1 (centres undefined)
- T/C [8]: 98 % of control
- T/C [9]: 95 % of control
- T/C [10]: 101 % of control

SMILES: O=S1(=O)CC(c2ccc(F)cc2)Nc2ccccc21 (centres undefined)
- T/C [4]: 102 % of control
- T/C [5]: 102 % of control
- T/C [7]: 97 % of control

SMILES: [O-][N+](=Nc1ccc2c(c1)Cc1ccccc1-2)c1ccc2c(c1)Cc1ccccc1-2
- T/C [11]: 96 % of control
- T/C [12]: 92 % of control
- T/C [13]: 91 % of control

SMILES: OC(c1ccccc1)(c1ccccc1)C1C(=C(c2ccccc2)c2ccccc2)C1c1ccccc1 (centres undefined)
- T/C (dose: 100.0 mg/kg/injection, schedule: Q01DX001 (ip), vehicle: steriod suspending solution): 104 % of control
- T/C (dose: 200.0 mg/kg/injection, schedule: Q01DX001 (ip), vehicle: steriod suspending solution): 93 % of control
- T/C (dose: 400.0 mg/kg/injection, schedule: Q01DX001 (ip), vehicle: steriod suspending solution): 95 % of control

SMILES: CC(=O)Nc1c(Cl)c(Cl)c2c(c1Cl)C(O)c1cc(Cl)ccc1-2 (centres undefined)
- T/C [14]: 103 % of control
- T/C [15]: 97 % of control
- T/C [16]: 114 % of control

SMILES: CCCCN1CCN2C(=O)N(CC)CCC2C1 (centres undefined)
- T/C (dose: 25.0 mg/kg/injection, schedule: Q04DX003 (ip), vehicle: saline): 91 % of control
- T/C (dose: 50.0 mg/kg/injection, schedule: Q04DX003 (ip), vehicle: saline): 98 % of control
- T/C [6]: 102 % of control
- T/C [17]: 116 % of control

SMILES: COc1ccc(OC(=O)Nc2cccc(C(C)=O)c2)cc1
- T/C (dose: 100.0 mg/kg/injection, schedule: Q01DX009 (ip), vehicle: other): 106 % of control
- T/C (dose: 200.0 mg/kg/injection, schedule: Q01DX009 (ip), vehicle: other): 89 % of control
- T/C (dose: 400.0 mg/kg/injection, schedule: Q01DX009 (ip), vehicle: other): 101 % of control

SMILES: CC(C)(CO)CO
- T/C [8]: 97 % of control
- T/C (dose: 25.0 mg/kg/injection, schedule: Q04DX002 (ip), vehicle: saline): 113 % of control
- T/C [9]: 108 % of control
- T/C (dose: 50.0 mg/kg/injection, schedule: Q04DX002 (ip), vehicle: saline): 102 % of control
- T/C [10]: 105 % of control
- T/C (dose: 100.0 mg/kg/injection, schedule: Q04DX002 (ip), vehicle: saline): 102 % of control and 103 % of control

SMILES: COc1ccc(C(C#N)CC(=O)c2ccc3c(c2)OCO3)cc1OC (centres undefined)
- T/C [10]: 104 % of control
- T/C [17]: 98 % of control
- T/C [18]: 104 % of control
- T/C (dose: 200.0 mg/kg/injection, schedule: Q04DX003 (ip), vehicle: saline): 104 % of control
- T/C (dose: 400.0 mg/kg/injection, schedule: Q01DX009 (ip), vehicle: saline): 97 % of control
- T/C (dose: 400.0 mg/kg/injection, schedule: Q04DX003 (ip), vehicle: saline): 98 % of control

SMILES: CC1CN(C(C)C)C1
- T/C [19]: 101 % of control
- T/C [20]: 97 % of control

SMILES: CCCCC(=O)N(CC)CC
- T/C [19]: 97 % of control
- T/C [20]: 97 % of control

SMILES: O=C(O)/C=C\C(=O)NNC(=O)/C=C\C(=O)O
- T/C (dose: 50.0 mg/kg/injection, schedule: Q01DX009 (ip), vehicle: saline with Tween-80): 101 % of control
- T/C [9]: 100 % of control
- T/C [21]: 96 % of control
- T/C [10]: 100 % of control
- T/C [22]: 104 % of control
- T/C [18]: 93 % of control

SMILES: COC(=O)C(=C(c1ccccc1)c1ccccc1)c1ccccc1
- T/C [11]: 90 % of control
- T/C [12]: 90 % of control

SMILES: CC(C)NS(=O)(=O)c1ccc(Cl)cc1
- T/C [4]: 100 % of control
- T/C [5]: 102 % of control

SMILES: Cc1c(C)c2c(Cl)c3ccccc3nc2c2ccccc12
- T/C [3]: 102 % of control
- T/C [4]: 100 % of control
- T/C [5]: 112 % of control
- T/C [7]: 100 % of control

SMILES: Cc1c(Br)sc2ccccc12
- T/C [14]: 96 % of control
- T/C [15]: 96 % of control
- T/C [16]: 107 % of control

SMILES: O=[N+]([O-])c1cc(N(c2ccccc2)c2ccccc2)c(Cl)cc1Cl
- T/C [14]: 111 % of control
- T/C [15]: 103 % of control
- T/C [16]: 95 % of control

SMILES: C1CCC(CCC(CCCC2CCCC2)CCCC2CCCC2)CC1
- T/C (dose: 100.0 mg/kg/injection, schedule: Q01DX001 (ip), vehicle: saline with Tween-80): 97 % of control
- T/C (dose: 200.0 mg/kg/injection, schedule: Q01DX001 (ip), vehicle: saline with Tween-80): 92 % of control
- T/C (dose: 400.0 mg/kg/injection, schedule: Q01DX001 (ip), vehicle: saline with Tween-80): 101 % of control

SMILES: Cc1nc2ccccc2n(O)c1=O
- T/C [23]: 97 % of control
- T/C [24]: 93 % of control
- T/C [25]: 89 % of control

SMILES: CCCCCCCC/C=C\CCCCCCCC(=O)NCC[N+]1(C)CCCCC1
- T/C [1]: 94 % of control
- T/C [2]: 97 % of control

SMILES: C[C@@H]1CN1C1=CC(=O)C(N2C[C@H]2C)=CC1=O
- T/C (dose: 6.25 mg/kg/injection, schedule: Q04DX003 (ip), vehicle: saline with Tween-80): 117 % of control
- T/C (dose: 12.5 mg/kg/injection, schedule: Q04DX003 (ip), vehicle: saline with Tween-80): 117 % of control

SMILES: Nc1ccn(C2OC(CO)C(O)C2OP(=O)(O)OCC2OC(n3ccc(=O)[nH]c3=O)CC2O)c(=O)n1 (centres undefined)
- T/C [9]: 153 % of control
- T/C [10]: 166 % of control

SMILES: CCCCCCOC(N)=O
- T/C [23]: 96 % of control
- T/C [24]: 96 % of control
- T/C [4]: 96 % of control
- T/C [25]: 96 % of control
- T/C [5]: 96 % of control

SMILES: CCOC(=O)OCCCN(C)C
- T/C [21]: 94 % of control
- T/C [11]: 100 % of control
- T/C [22]: 94 % of control
- T/C [12]: 93 % of control
- T/C (dose: 400.0 mg/kg/injection, schedule: Q01DX009 (ip), vehicle: saline with Tween-80): 90 % of control
- T/C [13]: 96 % of control
